These results are taken from patent US7524849B2, “5-arylpyrimidines as anticancer agents” (Wyeth Holdings Corporation, priority 2003, dated 2009).

In one series the test system is HL-60 cells. As to the kind of experiment: MTS cytotoxicity test with HL-60 cells. Particulars: mean of 2 experiments. In kind it is cell-based, human. An excerpt:
(§1) Human cancer cell lines, unless otherwise noted, are obtained from the American Type Culture Collection (Rockville, Md.). The following drug-sensitive parental cell lines, and their derived drug-resistant counterparts, are obtained from the originators as listed: (a) S1 (parental line from a subclone of human colon carcinoma line LS174T) and derived S1-M1-3.2 (herein called S1-M1) which expresses the MXR drug transporter protein, are provided by Dr. L. Greenberger, Wyeth Research (Rabindran, S. K., He, H., Singh, M., Brown, E., Collins, K. I., Annable, T., and Greenberger, L. M. Reversal of a novel multidrug resistance mechanism in human colon carcinoma cells by fumitremorgin C. Cancer Res., 58: 5850-5858, 1998); (b) parental HL-60 human promyelocytic leukemia line and derived HL-60/ADR, which expresses the MRP1 drug transporter protein, are provided by Dr. M. Center, University of Kansas (McGrath, T., and Center, M. S. Adriamycin resistance in HL60 cells in the absence of detectable P-glycoprotein. Biochem. Biophys. […] J. Biol. Chem., 261: 7762-7770, 1986) via Dr. L. Greenberger, Wyeth Research.
(§2) The assay, which is sold in kit form by Promega (Madison, Wis.; CellTiter 96 AQueous Non-Radioactive Cell Proliferation Assay), is based on the conversion by viable cells, but not by dead cells, of the tetrazolium salt, MTS (3-(4,5-dimethylthiazol-2-yl)-5-(3-carboxymethoxyphenyl)-2-(4-sulphophenyl)-2H-tetrazolium, inner salt), into a water-soluble colored formazan which is detected by spectrophotometry. Compounds are tested at nine concentrations, in order to determine IC50 values. For the test procedure, cells are harvested by trypsinization, washed, counted and distributed to wells of 96-well flat-bottom microtiter plates at 1000 cells per well in 200 μL of medium. In addition, one row of wells on a separate plate receives cells as above (“time 0” plate). All plates are incubated at 37° in humidified 5% CO2 in air for about 24 hr.
(§3) On day 2, compounds for test are diluted and added to wells. Compounds are dissolved in DMSO at 10 mg/mL. For each compound, nine serial 2-fold dilutions are prepared in DMSO. Ten μL of each dilution in DMSO are transferred to 100 μL of medium, mixed well, and then 5 μL of this dilution are transferred in quadruplicate to wells containing cells. […] Plates are returned to the incubator for three days. At the time of drug addition to the experimental plates, the MTS assay is run on the “time 0” plate. This produces the “time 0 MTS value” which is related to the number of viable cells per well at the time of drug addition.
(§4) After three days of culture with test compounds (day 5 overall), the MTS assay is done on all wells of the experimental plates. The absorbance values of the quadruplicate sample wells are averaged and divided by the average of the “time 0” values. […] The nine values for each compound are plotted against concentration, and the concentration that produces a relative color yield half way between the maximum and minimum is taken as the IC50 value.
(§5) HL-60/ADR cells overexpress the multidrug resistance protein MRP1 which mediates resistance to some chemotherapeutics (Gottesman, M. M., Fojo, T., and Bates, S. E. Multidrug resistance in cancer: role of ATP-dependent transporters. Nature Rev. Cancer, 2: 48-58, 2002). The IC50 values of representative examples of this invention, as well as reference compounds, on HL-60/ADR are compared to values on the sensitive parental HL-60 line.

Series [1] has as its system highly purified tubulin (tubulin heterodimer). The experiment in a line: Competitive binding test, [3H]colchicine. More on the design: species or system bovine. Particulars: competitor 100 μM, [3H]colchicine 50 nM, percent of binding to control without competitor. The procedure: (§6) Medium is RPMI-1640 with L-glutamine, supplemented with 10% heat-inactivated fetal calf serum, 100 units/mL penicillin, and 100 μg/mL streptomycin (Gibco, Grand Island, N.Y.). Microtubule-associated protein (MAP)-rich tubulin, containing about 70% tubulin and 30% MAPs (#ML113), and highly purified tubulin (>99% pure, #TL238), both from bovine brain, are obtained from Cytoskeleton, Inc., Denver, Colo. PEM buffer (80 mM piperazine-N,N′-bis[2-ethanesulfonic acid], pH 6.9, 1 mM ethylene glycol-bis(β-aminoethyl ether)-N,N,N′,N′-tetraacetic acid, 1 mM magnesium chloride) and guanosine 5′-triphosphate (GTP) are also obtained from Cytoskeleton. […] [^3H]vinblastine, specific activity 9.60 Ci/mmol and MicroSpin G-50 columns are obtained from Amersham Biosciences (Piscataway, N.J.). […] Other reagents are obtained from Sigma (St. Louis, Mo.).
(§7) The binding of examples of this invention to highly purified tubulin is studied by competitive inhibition methods.
(§8) These solutions are incubated at 24° for 1 hr and then applied to MicroSpin G-50 columns which are centrifuged for 2 min at 3000 rpm in an Eppendorf 5415C microfuge. An aliquot of each column effluent (containing tubulin and bound radioligand) is mixed with scintillation fluid and counted in a liquid scintillation spectrometer. […] Quadruplicates are averaged, and the ability of the competitor to inhibit the binding of the radioligand is expressed as a percentage of control binding in the absence of any competitor.

The next series deals with KB-8-5 cells. The experiment in a line: MTS cytotoxicity test with KB-8-5 cells (moderate P-glycoprotein). In kind it is cell-based, human. To be noted: KB 8.5 cells, mean of 2 experiments.
Source text: as §1, §2, §3, §4

A further series deals with HL-60/ADR cells. As to the kind of experiment: MTS cytotoxicity test with HL-60/ADR cells (MRP1). To be noted: for IC50: HL-60/ADR cells, mean of 2 experiments; for Ratio: IC50 on HL-60/ADR cells/IC50 on HL-60 cells. In kind it is cell-based, human.
Source text: as §1, §2, §3, §4, §5

A further series concerns COLO 205 cells. As to the kind of experiment: MTS cytotoxicity test with COLO 205 cells. In kind it is cell-based, human. Particulars: three days with compound. As to the method: as §2
On day 2, compounds for test are diluted and added to wells. Compounds are dissolved in DMSO at 10 mg/mL. For each compound, nine serial 2-fold dilutions are prepared in DMSO. Ten μL of each dilution in DMSO are transferred to 100 μL of medium, mixed well, and then 5 μL of this dilution are transferred in quadruplicate to wells containing cells. The final high concentration of each compound is typically 5 μM. Plates are returned to the incubator for three days. At the time of drug addition to the experimental plates, the MTS assay is run on the “time 0” plate. This produces the “time 0 MTS value” which is related to the number of viable cells per well at the time of drug addition.
After three days of culture with test compounds (day 5 overall), the MTS assay is done on all wells of the experimental plates. The absorbance values of the quadruplicate sample wells are averaged and divided by the average of the “time 0” values. The average of control wells without drug, divided by the average “time 0” value, gives the maximal relative increase in MTS color yield due to cell growth during the final three days of culture. The average of control wells with high drug concentration, divided by the “time 0” value, gives the minimal relative color yield for cells that were completely killed. The nine values for each compound are plotted against concentration, and the concentration that produces a relative color yield half way between the maximum and minimum is taken as the IC50 value.
COLO 205 is a human colon carcinoma cell line that is used for comparative testing of the examples of this invention and several reference compounds. This line is sensitive to paclitaxel and vincristine.

The next series concerns KB-V1 cells. The experiment in a line: MTS cytotoxicity test with KB-V1 cells (very high P-glycoprotein). Particulars: for IC50: KB VI cells, mean of 2 experiments. In kind it is cell-based, human.
Source text: as §1, §2, §3, §4

In another series the test system is S1-M1 cells. As to the kind of experiment: MTS cytotoxicity test with S1-M1 cells (MXR). In kind it is cell-based, human. To be noted: for IC50: S1-M1 cells, mean of 2 experiments; for Ratio: IC50 on S1-M1 cells/IC50 on S1 cells.
Source text: as §1, §2, §3, §4
(§9) S1-M1 cells overexpress the MXR transporter which mediates resistance to some chemotherapeutics (Gottesman, M. M., Fojo, T., and Bates, S. E. Miltidrug resistance in cancer: role of ATP-dependent transporters. Nature Rev. Cancer, 2: 48-58, 2002). The IC50 values of representative examples of this invention, as well as reference compounds, on S1-M1 are compared to values on the sensitive parental S1 line.

Another series has as its system S1 cells. The experiment in a line: MTS cytotoxicity test with S1 cells. It counts as cell-based, human. To be noted: mean of 2 experiments.
Source text: as §1, §2, §3, §4, §9

Series [2] relates to highly purified tubulin (tubulin heterodimer). As to the kind of experiment: Competitive binding test, [3H]vinblastine. Particulars: competitor 100 μM, [3H]vinblastine 100 nM, percent of binding to control without competitor. More on the design: species or system bovine. As to the method: as §6, §7, §8
Another series relates to KB cells. The experiment in a line: MTS cytotoxicity test with KB cells. Particulars: mean of 2 experiments. It counts as cell-based, human.
Source text: as §1, §2, §3, §4

The next series has as its system MAP-rich tubulin. As to the kind of experiment: Tubulin polymerization test with MAP-rich tubulin. It counts as biochemical, bovine. Particulars: 0.3 μM compound, mean A340 at 20 min, fold enhancement over control. The procedure: as §6
MAP-rich tubulin is dissolved in ice-cold PEM buffer containing 1 mM GTP (GPEM buffer) at a concentration of 1.3 mg/mL. The solution is centrifuged at top speed in an Eppendorf model 5415C microcentrifuge (Brinkmann Instruments, Westbury, N.Y.) for 10 min at 4° immediately before use. The tubulin solution is added to wells of a ½-area 96-well plate (Costar No. 3696, Corning, Inc., Corning, N.Y.) already containing the compounds of interest. Each compound is tested in duplicate at a final concentration of 0.3 μM in a volume of 110 μL per well. The final DMSO concentration in all wells is 0.3%. Control reactions, which receive compound solvent only, are done in quadruplicate. The plate is put in a SpectraMax Plus plate reader (Molecular Devices Corp. Sunnyvale, Calif.) thermostated at 24° and the absorbance of each well at 340 nm, a measure of the appearance of turbidity due to tubulin polymer formation, is determined every minute for 60 minutes. The absorbance at time 0 for each well is subtracted from each of the subsequent absorbance readings for that well, and then the duplicates are averaged.

Regarding `CN(C)CCCOc1cc(F)c(-c2c(Cl)nc(N(C)C#N)nc2NCC(F)(F)F)c(F)c1` [Example 19, 4-Chloro-5-{4-[3-(dimethylamino)propoxy]-2,6-difluorophenyl}-6-[(2,2,2-trifluoroethyl)amino]pyrimidin-2-yl(methyl)cyanamide], the IC50 came out at 66 nM with HL-60 cells (Homo sapiens); 69 nM in the series on KB-8-5 cells (Homo sapiens); 60 nM in the series on HL-60/ADR cells (Homo sapiens, HL60/ADR); 52 nM with COLO 205 cells (Homo sapiens, 72 h); 176 nM in the series with KB-V1 cells (Homo sapiens, KB-V1); 88 nM in the series with S1-M1 cells (Homo sapiens). Moreover, the concentration for half-maximal inhibition (IC50) in the series with S1 cells (Homo sapiens) stood at 88 nM; with KB cells (Homo sapiens) it was 63 nM. Moreover, the “[3H]Colchicine binding, Mean” value in [1] was 116 % of control. Also, the values for the Ratio in the series with HL-60/ADR cells and with S1-M1 cells were 0.9 and 1.0, respectively. Besides, the “[3H]Vinblastine binding, Mean” value in series [2] is given as 22 % of control.

For `CN(C)CCCOc1cc(F)c(-c2c(Cl)nc(-n3ccnc3)nc2NCC(F)(F)F)c(F)c1` [Example 31, 6-Chloro-5-{4-[3-(dimethylamino)propoxy]-2,6-difluorophenyl}-2-(1H-imidazol-1-yl)-N-(2,2,2-trifluoroethyl)pyrimidin-4-amine], the melting point fell in the range of 47 to 49 °C. Besides, the 50% inhibitory concentration (IC50) in the series on COLO 205 cells (Homo sapiens, 72 h) is 682 nM.

In the case of `CN(C#N)c1nc(Cl)c(-c2c(F)cc(F)cc2F)c(NCC(F)(F)F)n1` [Example 1, 4-Chloro-6-[(2,2,2-trifluoroethyl)amino]-5-(2,4,6-trifluorophenyl)pyrimidin-2-yl(methyl)cyanamide], in series [1], the “[3H]Colchicine binding, Mean” value is on record as 47 % of control. Also, in the series on COLO 205 cells (Homo sapiens, 72 h), the IC50 stood at 214 nM. Besides, the “[3H]Vinblastine binding, Mean” value in series [2] is 30 % of control.

As to `CC(=O)O[C@@]12CO[C@@H]1C[C@H](O)[C@@]1(C)C(=O)[C@H](O)C3=C(C)[C@@H](OC(=O)[C@H](O)[C@@H](NC(=O)OC(C)(C)C)c4ccccc4)C[C@@](O)([C@@H](OC(=O)c4ccccc4)[C@H]21)C3(C)C` [Docetaxel, reference compound], in the series with MAP-rich tubulin, the “A340 Compound / A340 Control” value came to 8.6.

In turn, `Fc1cc(F)c(-c2c(Cl)nc(-n3ccnc3)nc2NCC(F)(F)F)c(F)c1` [Example 15, 6-Chloro-2-(1H-imidazol-1-yl)-N-(2,2,2-trifluoroethyl)-5-(2,4,6-trifluorophenyl)pyrimidin-4-amine] registered a melting point of 168 to 170 °C. For the same compound, in the series on COLO 205 cells (Homo sapiens, 72 h), the half-inhibitory concentration (IC50) turned out to be 3030 nM.

Regarding `CNCCCOc1cc(F)c(-c2c(Cl)nc(-c3cnccn3)nc2C2CCCCCC2)c(F)c1.O=C(O)C(F)(F)F` [Example 33a, N-{3-[4-(4-Chloro-6-cycloheptyl-2-pyrazin-2-ylpyrimidin-5-yl)-3,5-difluorophenoxy]propyl}-N-methylamine trifluoroacetic acide salt], the IC50 with HL-60 cells was found to be 6.9 nM; in the series on KB-8-5 cells it was 7.5 nM; in the series on HL-60/ADR cells, 6.1 nM; in the series with COLO 205 cells, 8.2 nM; in the series on KB-V1 cells, 91 nM; in the series on S1-M1 cells, 12 nM. Further, the IC50 with S1 cells came out at 8.5 nM; with KB cells, 6.8 nM. The Ratio in the series on HL-60/ADR cells is given as 0.9; in the series on S1-M1 cells, 1.4. The “Ratio VI/KB” value with KB-V1 cells (IC50 on KB VI cells/IC50 on KB cells) stood at 13. Further, in the series on KB-V1 cells (inferred from change in IC50 KB-V1 vs KB), the “recognition by P-glycoprotein” value was “show recognition by P-glycoprotein, but much less than that shown by paclitaxel and vincristine”. In addition, the “A340 Compound / A340 Control” value in the series on MAP-rich tubulin is reported as 0.5.
